Several values for one entry are separate records, joined by “and”; a condition that tells them apart may be missing. Equal entries are not always repeated.
Experiments:
recombinant TGR = molecular target: T1, recombinant TGR (Schistosoma mansoni, UniProt Q962Y6); test: Photolabeling of TGR with PRP; type: binding, S. mansoni; conditions: for 800 nm Normalized Signal: TGR 1 µM
T1 construct: made in house
Experimental: […] The photocrosslinking and CuAAC click biotinylation were performed as previously described by our group. After resolving samples on SDS-PAGE and nitrocellulose membrane transfer, western blot normalization was performed with the Licor Revert™ 700 Total Protein Stain Kit as described in their protocol. Protein was finally imaged with the Licor IRDye® 800CW streptavidin on the Odyssey Sa imager.

S. mansoni TGR = molecular target: T2, S. mansoni TGR (Schistosoma mansoni, UniProt Q962Y6); test: S. mansoni TGR enzyme inhibition (DTNB reduction); type: biochemical
T2 construct: made in house
T2 sequence (Q962Y6 1-598): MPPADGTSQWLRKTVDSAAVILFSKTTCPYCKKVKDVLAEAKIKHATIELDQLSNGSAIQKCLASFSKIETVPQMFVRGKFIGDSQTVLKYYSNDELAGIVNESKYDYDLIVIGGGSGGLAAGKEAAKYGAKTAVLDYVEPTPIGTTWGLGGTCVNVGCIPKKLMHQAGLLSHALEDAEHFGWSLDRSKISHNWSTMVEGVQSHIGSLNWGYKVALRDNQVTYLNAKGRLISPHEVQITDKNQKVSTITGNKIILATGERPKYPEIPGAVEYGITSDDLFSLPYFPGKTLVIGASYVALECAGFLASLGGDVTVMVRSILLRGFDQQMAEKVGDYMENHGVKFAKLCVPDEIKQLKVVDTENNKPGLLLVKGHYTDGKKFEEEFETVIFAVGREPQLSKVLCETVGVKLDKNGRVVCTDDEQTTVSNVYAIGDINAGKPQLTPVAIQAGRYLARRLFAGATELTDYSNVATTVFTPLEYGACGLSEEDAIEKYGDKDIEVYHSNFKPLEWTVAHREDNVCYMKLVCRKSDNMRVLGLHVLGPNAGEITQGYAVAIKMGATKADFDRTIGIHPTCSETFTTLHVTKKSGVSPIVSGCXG
Experimental: Recombinant TGR, human TrxR1, B. malayi (Bm)TrxR and human GR proteins were expressed and purified as described[20],[69],[79]. The codon optimized sequence for P. falciparum (PfTrxR, https://www.ncbi.nlm.nih.gov/protein/CAA60574.1/) with an N-terminal 6-His tag was synthesized and inserted into pET15b (GenScript) and expressed in BL21 (DE3) cells and purified as described for human GR[20]. TGR and TrxR enzyme inhibition assays were performed in triplicate at 25 °C as described[20] in 0.1 M potassium phosphate (pH 7.4), 10 mM EDTA, 100 µM NADPH and 0.01% Tween-20. […] The reaction was started with addition of an equal volume of DTNB (6 mM) and NADPH (100 µM) and the increase in A412 during the first 3 min was recorded. […] The reaction was preincubated for 15 min. Activity was initiated with the addition of 1 mM GSSG and 100 μM NADPH and initial rates of NADPH oxidation were monitored at 340 nm. The reactions were done in triplicate. The IC50 was calculated in GraphPad Prism.

[1] = molecular target: S. mansoni histone deacetylase 8 (Schistosoma mansoni, UniProt A5H660); test: Photolabeling of control protein SmHDAC8 with PRP; type: binding; conditions: for 800 nm Normalized Signal: SmHDAC8 1 µM
Experimental: TGR (1 µM) or SmHDAC8 (1 µM) was incubated at concentrations of either 5 or 50 µM PRP with or without 100 µM NADPH totaling eight samples. The photocrosslinking and CuAAC click biotinylation were performed as previously described by our group. After resolving samples on SDS-PAGE and nitrocellulose membrane transfer, western blot normalization was performed with the Licor Revert™ 700 Total Protein Stain Kit as described in their protocol. Protein was finally imaged with the Licor IRDye® 800CW streptavidin on the Odyssey Sa imager.

[2] = Reactivity with GSH or N-Boc protected methyl ester of selenocysteine (LCMS); type: physicochemical; conditions: up to 120 h
Experimental: Dimethyl bis(N-tert-butoxycarbonyl)-L-selenocystine was synthesized as reported previously. (N-tert-butoxycarbonyl)-L-selenocysteine methyl ester was prepared in situ[86] in methanol or phosphate buffer. Compound 2 was added to the solution of (N-tert-butoxycarbonyl)-L-selenocysteine methyl ester in either methanol or phosphate buffer and incubated for 40 min, 24 h, and 120 h under N2 gas balloon. Additional amounts of NaBH4 were added at 12 h and 96 h to maintain the reducing conditions. Aliquots taken from methanol solution at each of the time points were concentrated in vacuo, mixed with water, and extracted with ethyl acetate. The organic layer was separated, concentrated in vacuo, re-dissolved in methanol and analyzed by LCMS. Aliquots taken from the phosphate buffer solution were extracted with ethyl acetate. The resulting organic layer was separated and concentrated in vacuo. The residue was re-dissolved in methanol and analyzed by LCMS. […] No additional spots were detected by TLC as well.
Covalent TGR inhibitor TRi-1 was used as a positive control for the reaction with (N-tert-butoxycarbonyl)-L-selenocysteine methyl ester. The reactivity of TRi-1 was tested similarly as described above for compound 2.

TGR [3] = molecular target: T3, TGR (Schistosoma mansoni, UniProt Q962Y6, X597U); test: Superoxide production (pyrogallol red); type: biochemical, S. mansoni; conditions: replicates
T3 construct: made in house
Experimental: The production of superoxide by TGR was determined by monitoring reaction of superoxide with pyrogallol red[80]. Briefly, a 1 ml reaction mix (500 nM TGR, 100 µM NADPH, and 20–50 µM inhibitor) was incubated at room temperature for 30 min for fast inhibitors, or 2 h for slow inhibitors. For irreversible inhibitor controls TRi-1 (synthesized in house as reported[45]), Stattic (Cayman Chemical), and AF (Cayman Chemical), the samples were desalted using a Zeba spin desalting column. 100 µL of sample was combined with pyrogallol buffer with and without superoxide dismutase (SOD) (50 µM pyrogallol red, 300 µM NADPH; ± 10 units SOD). The reaction was measured at A340 and A540 simultaneously for 2 h.

TGR [4] = molecular target: T4, TGR (Schistosoma mansoni, UniProt Q962Y6); test: Reversibility by jump dilution; type: biochemical
T4 construct: made in house
T4 sequence (Q962Y6 1-598): T2 sequence (Q962Y6 1-598)
Experimental: A reaction of 370 nM TGR, 100 µM NADPH, and 250 µM inhibitor was incubated for 15 min at room temperature. A 100x dilution of the reaction was made and the activity was determined immediately and after 60 min.

TGR [5] = molecular target: T3, TGR; test: NADPH consumption (oxidase activity); type: biochemical, S. mansoni
Experimental: TRi-1, Stattic (both at 50 µM) and AF (20 µM) were incubated with 1 ml of 500 nM TGR and 100 µM NADPH in TGR reaction buffer for 30 min. The samples were desalted using a Zeba spin desalting column (Thermo Fisher Scientific) and 100 µl of the desalted sample was combined with 100 µl of 100 µM NADPH. NADPH consumption was monitored at 340 nm in triplicate. Compounds 1, 4, 6, and 7 (50 µM) were tested in the same fashion without the desalting step and with a first incubation step of 30 min for 6 and 7 and 2 h for 1 and 4.

[6] = D0: diluted 1:100, activity determined immediately, list for plotting
[7] = D60: diluted 1:100, activity determined after 60 min, list for plotting

S. mansoni histone deacetylase 8, sequence (A5H660 entry or part of it): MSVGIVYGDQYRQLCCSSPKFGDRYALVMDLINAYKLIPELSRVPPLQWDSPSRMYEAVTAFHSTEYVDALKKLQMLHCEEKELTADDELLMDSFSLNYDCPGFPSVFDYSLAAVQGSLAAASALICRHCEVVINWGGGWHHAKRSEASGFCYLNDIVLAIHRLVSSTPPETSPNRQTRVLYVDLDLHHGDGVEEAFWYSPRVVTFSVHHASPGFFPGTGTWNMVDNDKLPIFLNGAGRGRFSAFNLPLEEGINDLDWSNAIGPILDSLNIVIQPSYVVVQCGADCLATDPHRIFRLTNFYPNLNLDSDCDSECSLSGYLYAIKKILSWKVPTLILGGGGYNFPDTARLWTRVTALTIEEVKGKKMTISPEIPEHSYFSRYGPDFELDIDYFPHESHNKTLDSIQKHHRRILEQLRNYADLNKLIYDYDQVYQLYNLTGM

For C#CCN(CCCNC(=O)c1c(F)c(F)c(N=[N+]=[N-])c(F)c1F)[C@@H]1C[C@@H]2C[C@H]([C@H]1C)C2(C)C [PRP], the “labeling of TGR with NADPH versus without NADPH” value (recombinant TGR; 5 and 50 μM PRP) was “more effective”, the “800 nm Normalized Signal” value (recombinant TGR; PRP 2 µM, NADPH 0 µM) was 57760 and the “800 nm Normalized Signal” value (recombinant TGR; PRP 2 µM, NADPH 100 µM) was 84928. The “800 nm Normalized Signal” value (recombinant TGR; PRP 10 µM, NADPH 0 µM) was 151239, the “800 nm Normalized Signal” value (recombinant TGR; PRP 10 µM, NADPH 100 µM) was 231567 and the IC50 (S. mansoni TGR; 15 min preincubation (enzyme + 100 µM NADPH + compound)) was 34.9 ± 6.11 µM. It also gave an inhibition at 15 µM (S. mansoni TGR; read-out: TGR % inhibition) of 30.8%, an inhibition at 30 µM (S. mansoni TGR; read-out: TGR % inhibition) of 47.5% and an inhibition at 66.7 µM (S. mansoni TGR; read-out: TGR % inhibition) of 55.1%. For the same compound, the “800 nm Normalized Signal” value ([1]; PRP 5 µM, NADPH 0 µM) was 1385, the “800 nm Normalized Signal” value ([1]; PRP 5 µM, NADPH 100 µM) was 2194 and the “800 nm Normalized Signal” value ([1]; PRP 50 µM, NADPH 0 µM) was 298. The “800 nm Normalized Signal” value ([1]; PRP 50 µM, NADPH 100 µM) was 1875 and the “labeling of S. mansoni histone deacetylase 8” value ([1]; with or without NADPH) was “not labeled”.

For COc1ccc([N+](=O)[O-])c(S(=O)(=O)c2ccc(Cl)cc2)n1 [TRi-1, reference compound], the “reaction with thiol or selenol groups in GSH or protected selenocysteine” value [2] was “An adduct between TRi-1 was detected”, the “Superoxide production, Pyrogallol red consumption monitored ΔA540” value (TGR [3]; condition not given) was -0.002664 and -0.002628 and -0.002752 and the “Superoxide production, Pyrogallol red consumption monitored ΔA540” value (TGR [3]; second of the two columns per substance (condition not given)) was -5.614e-5 and -5.998e-5. For the same compound, the “reversibility of TGR inhibition” value (TGR [4]; 250 µM inhibitor, 100-fold jump dilution) was “irreversible”, the “% Activity (ID list), D0” value (TGR [4]; [6]) was -1.4% and -0.0373% and 0.6% and the “% Inhibition (ID list), D0” value (TGR [4]; [6]) was 101.4% and 100.0% and 99.4%. For the same compound, the “% Activity (ID list), D60” value (TGR [4]; [7]) was 2.1% and 1.1% and 1.2%, the “% Inhibition (ID list), D60” value (TGR [4]; [7]) was 97.9% and 98.9% and 98.8% and the “% Activity, 0 min” value (TGR [4]; [0, D0]: 15 min preincubation inhibitor + TGR + NADPH, diluted 1:100, then activity determined immediately, relative to DMSO) was -1.437% and -0.03726% and 0.6084%. For the same compound, the “Inhibitor (rate), 60 min” value (TGR [4]; [60, D60]: 15 min preincubation inhibitor + TGR + NADPH, diluted 1:100, then activity determined after 60 min, raw rate) was 0.001123 and 0.0005896 and 0.0006645, the “% Activity, 60 min” value (TGR [4]; [60, D60]: 15 min preincubation inhibitor + TGR + NADPH, diluted 1:100, then activity determined after 60 min, relative to DMSO) was 2.121% and 1.115% and 1.1607% and the “Inhibitor (rate), -15” value (TGR [4]; [-15]: 15 min preincubation inhibitor + TGR + NADPH, then activity determined, raw rate, replicates) was 0.0012 and -0.0009 and -0.001. For the same compound, the “% Activity, -15” value (TGR [4]; [-15]: 15 min preincubation inhibitor + TGR + NADPH, then activity determined, relative to DMSO, replicates) was 2.39% and -1.793% and -3.401%, the “% Inhibition (ID list)” value (TGR [4]; before dilution (-15), list for plotting) was 101.0% and 101.8% and 97.0% and the “NADPH consumption by TGR after exposure” value (TGR [5]) was “converted TGR to a pro-oxidant enzyme”. For the same compound, the “NADPH consumption (rate/ΔOD340)” value (TGR [5]; replicates) was -0.001513 and -0.00148 and -0.001553.

From paper PMC10287695, “Non-covalent inhibitors of thioredoxin glutathione reductase with schistosomicidal activity in vivo” (Nature Communications, 2023)
